The source of these data is article PMC9664868, “Dephospho-Coenzyme A Kinase Is an Exploitable Drug Target against Plasmodium falciparum: Identification of Selective Inhibitors by High-Throughput Screening of a Large Chemical Compound Library” (Antimicrobial Agents and Chemotherapy, 2022).

Like-named read-outs stand apart in the source and are kept apart here. Bounds are passed on as bounds.

Data set [1] has as its target T1, PfDPCK (Plasmodium falciparum, UniProt Q8IL34). Nature of the data set: PfDPCK inhibition, enzyme-coupled fluorescence ADP detection assay (HTS and IC50 determination). The class given is biochemical. How it is done:
High-throughput screening against recombinant PfDPCK was performed using the Drug Discovery Initiative (DDI) full library, available from The University of Tokyo, composed of approximately 210,000 compounds. The primary assay was performed on 1,536-well white plate format with a final volume of 2 μL/well, containing 10 μM test compounds using a Multidrop Combi reagent dispenser (Thermo Fisher Scientific, Waltham, MA). The reaction was conducted in the assay buffer described above with 100 μM ATP and 50 μM dephospho-CoA. The assay was carried out at room temperature for 4 h in a closed plastic container with wet tissues. The reaction was stopped, and produced ADP was quantified using an enzyme-coupled fluorescence ADP detection assay, using PHERAstar microplate reader (BMG Labtech, Offenburg, Germany) with excitation at 540 nm and emission at 590 nm, as previously described ([17]). The inhibition level was calculated as the percentage inhibition of DPCK activity with each compound compared to the activity with only dimethyl sulfoxide (DMSO) as control (no inhibition) and that with no enzyme as 100% inhibition. IC50 values of the hit compounds were determined under the same assay conditions for the screening: Z′ factor, signal-to-background ratio (S/B), signal-to-noise ratio (S/N), and coefficient of variation (CV) were calculated to estimate the quality of screening system as previously described ([18], [38]).
The primary hits were reassayed in quadruplicate (n = 4) as in the primary screening. We next tested the confirmed secondary hits to exclude false positives that inhibit coupled fluorescence assay, but not PfDPCK. After exclusion of false positives, all tertiary hits were tested against human HsCOASY in the counterassay to exclude compounds that inhibit both PfDPCK and HsCOASY. The compounds showing >10% inhibition against HsCOASY were excluded from further studies. The IC50 values of the hit compounds were determined under the same assay conditions described as above for the primary screening, with the serially diluted compounds at 20, 10, 2.5, 0.5, and 0.1 μM at final concentrations. The assay was conducted in quadruplicate for each dilution, and IC50 values were calculated using GraphPad Software (San Diego, California USA).

Data set [2] concerns P. falciparum drug-sensitive 3D7 strain. The experiment in a line: Erythrocytic-stage parasite growth inhibition, diaphorase-coupled LDH assay, 3D7. The format is cell-based, Plasmodium falciparum. Particulars: for Selectivity index IC50 (HepG2/3D7): HepG2 IC50 / 3D7 IC50. How it is done: (§1) Selected hit compounds were also tested against erythrocytic-stage parasites of P. falciparum drug-sensitive 3D7 and drug-resistant Dd2 strains ([39]). For the phenotypic assay, parasite cultures were synchronized with 5% (wt/vol) D-sorbitol as previously described ([40]). A synchronized culture containing ring-stage parasites of 0.3% parasitemia was initiated with a culture volume of 25 μL/well on a 384-well plate. A series of diluted compounds (at final concentrations of 50, 10, 2, 0.4, and 0.08 μM) were used to calculate IC50 values. Mefloquine at 50 μM and atovaquone at 20 μM were used as no-growth control (100% inhibition). After 72 h of incubation, parasite growth was measured by diaphorase-coupled lactate dehydrogenase (LDH) assay as previously described ([41]). Absorbance at 650 nm was measured using SpectraMax Paradigm multimode microplate reader (Molecular Devices, San Jose, CA, USA). The IC50 values were calculated as described above.

For data set [3], the system named is P. falciparum drug-resistant Dd2 strain. The experiment in a line: Erythrocytic-stage parasite growth inhibition, diaphorase-coupled LDH assay, Dd2. The class given is cell-based, Plasmodium falciparum. Particulars: for IC50: Plasmodium falciparum. On the procedure:
as §1

A further data set concerns HepG2 cell line. Nature of the data set: Cytotoxicity assay (Cell Counting Kit-8). The format is cell-based, human. Particulars: Homo sapiens. On the procedure:
Cytotoxicity against human cells was evaluated using the human liver carcinoma HepG2 cell line. HepG2 cells were cultured in D-MED supplemented with 4 mM L-glutamine and 10% fetal bovine serum (FBS) in a 75-cm^2 flask (Violamo) at 37°C. For the cytotoxicity assay, HepG2 cells in semiconfluent state were detached from the flask by incubating the cells with 5 mL D-MEM containing 0.25% trypsin-EDTA. After detachment, HepG2 cells were resuspended in D-MEM-supplemented L-glutamine and FBS, and cell viability was evaluated by incubating cells with 0.4% Trypan blue on a hemocytometer. An approximately 50-μL suspension containing 3,000 cells was dispensed into each well on a 384-well clear-bottom plate using a Multidrop Combi dispenser. Compounds dissolved in DMSO had been dispensed into wells to yield final concentrations of 100, 20, 4, 0.8, and 0.2 μM before cells were added. After cells were added to the plates, they were cultured at 37°C under 5% CO2. After 48 h cultivation, 5 μL of Cell Counting Kit-8 (Dojindo, Japan) was added, and the plates were further incubated for 2 h to assess cell growth and survival.
A general note: Tetrazolium assays rely on reduction of a dye to a coloured formazan, in cell work by metabolically active cells.

The target of data set [4] is T1, PfDPCK. The experiment in a line: Mechanism of PfDPCK inhibition by Lineweaver-Burk plot. The format is biochemical. On the procedure: In order to understand the mechanism of PfDPCK inhibition of the identified compounds, we independently selected compounds from 359 PfDPCK-specific inhibitor candidates (showing >40% inhibition at 10 μM against PfDPCK), based on the more stringent criteria of >80% inhibition at 10 μM against PfDPCK and <10% inhibition against HsCOASY, to yield 30 hits. The hits were prioritized using a multiparameter optimization (MPO) scoring model, developed by MMV (https://www.optibrium.com/downloads/scoring-profiles/mmv-antimalarial-scoring-profile/) based on calculated physicochemical properties, including molecular weight, logP, hydrogen bond donors and acceptors, rotatable bonds, and structural alerts ([20], [21]). We finally chose six representative compounds (A-15, A-33, and A-69, shown in Table S1, and other three compounds; A-126, A-127, and A-128) by manual inspection with “chemist eye” for chemical attractiveness (druglikeness). […] Furthermore, two compounds, A-33 and A-69, are considered to be pan-assay interference compounds (PAINS) (phenolic Mannich base) ([22]). We consequently focused on two commercially available compounds (A-15 and A-127) (Fig. 6A) and investigated their mechanism of inhibition. We differentiated the type of inhibition by Lineweaver-Burk plot with various concentrations of one substrate (dephospho-CoA or ATP), while the other substrate was given in saturating concentrations in kinetic studies (Fig. 5).
FIG 5 Lineweaver-Burk plots showing inhibition of two compounds, compound A-15 (A, B) and compound A-127 (C, D) on the PfDPCK activity. The enzymatic activities were determined with various concentrations of dephospho-CoA and 200 μM ATP (A, C) or various concentrations of ATP and 200 μM dephospho-CoA (B, D) in the presence of a range of concentrations of inhibitors. Data are shown in means ± SEMs of triplicate.
(§2) PfDPCK and HsCOASY activity was measured by quantifying ADP produced in the reaction by a coupling assay using the ADP Hunter Plus assay kit (DiscoverX, USA) according to the manufacturer's instructions. Briefly, enzymatic reactions were carried out in a 20-μL mixture of assay buffer containing 15 mM HEPES, 20 mM NaCl, 1 mM EGTA, 0.02% Tween 20, 10 mM MgCl2, 0.1% bovine gamma globulin, 50 ng of recombinant PfDPCK or HsCOASY, 4 to 256 μM dephospho-CoA, and 5 to 300 μM ATP on a black microplate. All reactions were performed for 2 h, reagents A and B were added, and they were then reincubated for 60 min at 30°C. After reactions were terminated by addition of ADP Hunter Stop solution, the fluorescent signal was measured using SpectraMax Paradigm (Molecular Devices, CA, USA) at excitation and emission wavelengths of 530 and 590 nm, respectively. The kinetic parameters were calculated using the nonlinear regression function using the single saturating concentrations of the substrates by the GraphPad Prism software (GraphPad Software Inc., San Diego, CA). The experiments were repeated three times in triplicate using proteins purified from independent cultures. Kinetic values of enzymes are presented as the means ± standard errors (SEs).

In data set [5] the target is T1, PfDPCK. The experiment in a line: Kinetic analysis of recombinant PfDPCK (ADP Hunter Plus). Conditions: as a substrate of PfDPCK. The class given is biochemical. On the procedure:
as §2

Substrate in data set [6]: CC(C)(COP(=O)(O)OP(=O)(O)OCC1OC(n2cnc3c(N)ncnc32)C(O)C1O)C(O)C(=O)NCCC(=O)NCCS
The data set is described as above. The format is biochemical, Plasmodium falciparum. Conditions: other: substrate of PfDPCK; 30.0 °C. How it is done:
as §2

The mark [7] stands for this setting: recombinant enzyme, means ± SEMs, read-out: IC50 (μM) of: PfDPCK.
Where [8] appears, read: Plasmodium falciparum, drug-sensitive 3D7, 72 h, means ± SEMs, read-out: IC50 (μM) of: Pf cell 3D7.
[9] abbreviates: drug-resistant Dd2, 72 h, means ± SEMs, read-out: IC50 (μM) of: Pf cell Dd2.
Where [10] appears, read: HepG2, ND (maximum concentration tested 100 μM), read-out: IC50 (μM) of: HepG2.
[11] abbreviates: HepG2, 48 h, means ± SEMs, read-out: IC50 (μM) of: HepG2.

As a reminder, the IC50 is the concentration needed to halve the response being measured. On to `O=C(O)C1NC(c2ccncc2)C23c4c5c6c7c8c9c(c%10c%11c2c2c4c4c%12c5c5c6c6c8c8c%13c9c9c%10c%10c%11c%11c2c2c4c4c%12c%12c5c5c6c8c6c8c%13c9c9c%10c%10c%11c2c2c4c4c%12c5c6c5c8c9c%10c2c45)C713` (stereo not shown) [Compound A-45], for which the IC50 against PfDPCK [1] was 6.68 ± 0.24 µM; in data set [2] (Plasmodium falciparum, 3D7, 72 h, read-out: IC50 (μM) of: Pf cell 3D7), 15.6 ± 0.61 µM; in data set [3] (DD2, 72 h, read-out: IC50 (μM) of: Pf cell Dd2), 1.29 ± 0.02 µM; with HepG2 cell line (HepG2, read-out: IC50 (μM) of: HepG2), > 100 µM.
For `COC(C(=O)N/N=C/c1ccccc1)c1ccccc1` (stereo not shown) [Compound A-50], the IC50 at PfDPCK [1] (setting [7]) was 6.99 ± 0.13 µM; in data set [2] (setting [8]), > 50 µM; in data set [3] (setting [9]), 6.62 ± 1.12 µM; with HepG2 cell line (setting [10]) it was > 100 µM.
As for `Cc1cn2c(/C=C3\C(=O)N(C)c4ccccc43)c(C)nc2s1` [Compound A-51], the IC50 at PfDPCK [1] (setting [7]) was 7.05 ± 0.08 µM; in data set [2] (setting [8]), 15.76 ± 0.12 µM; in data set [3] (setting [9]), 0.62 ± 0.23 µM; in the data set with HepG2 cell line (setting [11]), > 100 µM. Also, the “Selectivity index IC50 (HepG2/3D7)” value in data set [2] was >6.3. Moreover, the “Selectivity index IC50 (HepG2/Dd2)” value in data set [3] is >166.6.
`O=C1NC(=O)/C(=C/c2ccc(C(=O)Nc3ccc(O)cc3C(=O)O)cc2)S1` [Compound A-60]: the half-maximal inhibitory concentration (IC50) at PfDPCK [1] (setting [7]) is 8.35 ± 0.05 µM; in data set [2] (setting [8]), 34.14 ± 0.04 µM; in data set [3] (setting [9]), 5.53 ± 0.95 µM; with HepG2 cell line (setting [10]) it was > 100 µM.
`O=Cc1cc(C23CC4CC(CC(C4)C2)C3)cc([N+](=O)[O-])c1O` [Compound A-63]: the half-inhibitory concentration (IC50) on PfDPCK [1] (setting [7]) was 8.69 ± 0.01 µM; in data set [2] (setting [8]), 6.04 ± 0.05 µM; in data set [3] (setting [9]), 0.7 ± 0.22 µM; in the data set on HepG2 cell line (setting [11]), > 100 µM. Also, the “Selectivity index IC50 (HepG2/3D7)” value in data set [2] was >16.6. The “Selectivity index IC50 (HepG2/Dd2)” value in data set [3] is given as >142.8.
For the molecule `S=C(NCCc1ccccc1)NNc1nc2ccccc2[nH]1` [Compound A-65], the 50% inhibitory concentration (IC50) is 9.21 ± 0.12 µM on PfDPCK [1] (setting [7]), 4.4 ± 0.05 µM in data set [2] (setting [8]), 0.36 ± 0.1 µM in data set [3] (setting [9]) and > 100 µM with HepG2 cell line (setting [10]).
For orientation: inhibition means the change of the read-out against control, counted positive when it falls. What is called Ki is the dissociation constant of the complex between target and ligand, obtained from inhibition or displacement. In the case of `COc1cc(N2CCCC2)cc2ccc(-c3ccccn3)nc12` [Compound A-127], the IC50 was 5.01 ± 0.46 µM on PfDPCK [1] (Table S1, means ± SEM, read-out: IC50 (μM) Pf DPCK); < 2 µM in data set [2] (Plasmodium falciparum, 3D7, Table S1, means ± SEM, read-out: IC50 (μM) Pf cell 3D7); < 10 µM in data set [3] (DD2, Table S1, means ± SEM, read-out: IC50 (μM) Pf cell Dd2). In addition, in data set [2] (Plasmodium falciparum, 3D7, at 2 μM, read-out: growth inhibition against 3D7), the inhibition at 2 µM is 80%. Besides, the inhibitory constant (Ki) on PfDPCK [4] (in respect of ATP, 200 μM dephospho-CoA) was found to be 8.99 µM; on PfDPCK [4] (in respect of dephospho-CoA, 200 μM ATP) it was 14.9 µM. Further, the type of inhibition result at PfDPCK [4] (in respect of dephospho-CoA and ATP, Lineweaver-Burk plot) was “uncompetitive or noncompetitive inhibition”.
Regarding `CC(C)(CO)[C@@H](O)C(=O)NCCC(=O)O` [pantothenate], on PfDPCK [5], the specific activity is < 0.01 µmol/min/mg.

B1: PfDPCK (Plasmodium falciparum 3D7) (protein)
chain: MFLKFFLDKCILCFLALGSIPIGYINRKNKFRKIENQKYALFSSIVMNSFLIYLNKFFGILGIFNFFLGNYLCLIGITGGIAVGKSTFCNFLKKKDVVVINADEITSKIYTKDSICYKKIVKHFGENILNNDKSINRTLLRKIVFNNEENVKYINKITHTYIILQIIKECLKYKFLYFKYNVAIEAPLLIETKLYLLTSPVILLKSSVRNQIKRILSRDKNCTYDTAMGIIKNQLPTDEKIKYADIIINNDGDILDLQMKCDVVYNKYLKNFFF
Usually Km stands for the substrate concentration at which the rate is half of its maximum. Take B1: the Km in data set [6] was 105.3 ± 10.2 µM.
